# Assays:
# SCD5 = target: T1, SCD5 (Homo sapiens, UniProt Q86SK9); assay: Growth of yeast surviving solely on human SCD5; format: cell-based
# T1 construct: host or cells: S. cerevisiae ole1Δ strain (W303 pdr1Δ pdr3Δ background), plasmid pRS316 with TDH3 promoter and CYC1 terminator
# T1 sequence (Q86SK9 1-330): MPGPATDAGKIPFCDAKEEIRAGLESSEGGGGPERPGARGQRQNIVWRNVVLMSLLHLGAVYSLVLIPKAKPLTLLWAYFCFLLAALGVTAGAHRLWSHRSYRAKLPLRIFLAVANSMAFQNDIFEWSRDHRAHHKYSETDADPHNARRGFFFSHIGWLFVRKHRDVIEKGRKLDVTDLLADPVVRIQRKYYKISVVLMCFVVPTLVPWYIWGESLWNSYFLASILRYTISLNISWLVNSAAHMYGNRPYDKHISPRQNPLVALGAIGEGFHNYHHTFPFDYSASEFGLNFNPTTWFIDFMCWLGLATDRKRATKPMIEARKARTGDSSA
# Protocol: (§1) FIG. 6 is a series of graphs showing that commercial Scd inhibitors target human SCD1/SCD5 in yeast. Yeast surviving solely on yeast OLE1, or human SCD1 or SCD5, were treated with four commercial Scd inhibitors at indicated concentrations. Data are expressed as a percent of the DMSO-treated condition.
# (§2) FIG. 7 is a series of graphs showing that 1,2,4-oxadiazoles target human SCD1 and SCD5. Three “SCD” strains expressing yeast OLE1 or human SCD1 or SCD5 were treated with five representative 1,2,4-oxadiazoles and a cycloheximide toxicity control at concentrations indicated on the log10 x-axis. The y-axis indicates the percent of the DMSO-treated condition. […] Approximately one half of all (250) 1,2,4-oxadiazoles tested inhibited SCD1 or SCD5 in a manner that was reversed by oleic/palmitoleic acid treatment.
# SCD1 = target: T2, SCD1 (Homo sapiens, UniProt O00767); assay: Growth of yeast surviving solely on human SCD1; format: cell-based
# T2 construct: host or cells: S. cerevisiae ole1Δ strain (W303 pdr1Δ pdr3Δ background), plasmid pRS316 with TDH3 promoter and CYC1 terminator
# T2 sequence (O00767 1-359): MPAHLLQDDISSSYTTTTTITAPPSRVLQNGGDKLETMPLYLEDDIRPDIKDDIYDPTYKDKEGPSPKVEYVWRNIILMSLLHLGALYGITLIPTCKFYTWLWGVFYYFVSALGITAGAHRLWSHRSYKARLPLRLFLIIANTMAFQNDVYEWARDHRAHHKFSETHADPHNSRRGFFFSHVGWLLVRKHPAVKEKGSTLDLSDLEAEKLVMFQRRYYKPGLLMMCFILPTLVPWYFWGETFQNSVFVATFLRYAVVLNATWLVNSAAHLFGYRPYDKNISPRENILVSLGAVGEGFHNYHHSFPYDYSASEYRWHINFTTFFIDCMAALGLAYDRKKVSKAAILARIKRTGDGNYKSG
# Protocol: as §1, §2
# yeast OLE1 = target: T3, yeast OLE1 (Saccharomyces cerevisiae, UniProt P21147); assay: Growth of yeast surviving solely on yeast OLE1; format: cell-based
# T3 construct: expressed in transfected cells; host or cells: S. cerevisiae ole1Δ strain (W303 pdr1Δ pdr3Δ background), plasmid pRS316 with TDH3 promoter and CYC1 terminator
# T3 sequence (P21147 1-510): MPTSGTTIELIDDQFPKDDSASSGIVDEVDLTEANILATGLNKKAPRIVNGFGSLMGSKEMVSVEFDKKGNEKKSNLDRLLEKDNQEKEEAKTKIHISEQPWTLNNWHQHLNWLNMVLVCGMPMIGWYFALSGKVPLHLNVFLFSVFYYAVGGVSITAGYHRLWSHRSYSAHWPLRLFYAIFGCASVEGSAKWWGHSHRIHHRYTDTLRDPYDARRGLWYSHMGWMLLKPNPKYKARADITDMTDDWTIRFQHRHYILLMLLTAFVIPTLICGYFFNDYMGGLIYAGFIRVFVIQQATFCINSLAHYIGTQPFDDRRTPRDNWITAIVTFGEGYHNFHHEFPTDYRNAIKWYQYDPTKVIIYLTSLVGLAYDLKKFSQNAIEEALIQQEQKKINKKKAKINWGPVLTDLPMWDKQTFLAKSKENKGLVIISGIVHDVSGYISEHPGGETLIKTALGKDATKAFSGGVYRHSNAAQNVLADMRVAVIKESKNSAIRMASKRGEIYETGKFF
# Protocol: as §1, §2
# [1] = system: yeast strains expressing the human α-synuclein; settings: reference compound, earlier work; cited from earlier work
Compound,growth of SCD5-expressing yeast (percent of the DMSO-treated condition) (SCD5),growth of SCD1-expressing yeast (percent of the DMSO-treated condition) (SCD1),growth of the strain expressing yeast OLE1 (percent of the DMSO-treated condition) (yeast OLE1),rescue of αSyn toxicity in yeast models [1]
"C[C@@H]1C[C@@H]([C@H](O)CC2CC(=O)NC(=O)C2)C(=O)[C@@H](C)C1 [Cyclohexamide, cycloheximide]",inhibited growth of all three strains with the same potency,inhibited growth of all three strains with the same potency,inhibited growth of all three strains with the same potency,–
"C=CC[C@@H]1/C=C(\C)C[C@H](C)C[C@H](OC)[C@H]2O[C@@](O)(C(=O)C(=O)N3CCCC[C@H]3C(=O)O[C@H](/C(C)=C/[C@@H]3CC[C@@H](O)[C@H](OC)C3)[C@H](C)[C@@H](O)CC1=O)[C@H](C)C[C@@H]2OC [FK506, tacrolimus]",–,–,–,rescue αSyn toxicity
